Assay [1] can be described thus: Scanning microradiography (SMR) of demineralisation of HAp blocks coated for 24 h with peptide. Conditions: for RDHAp of coated HAp compared to uncoated control: 24 h coating, StN21 0.75 to 3.76×10^−4 mol l^−1, lysozyme 0.11×10^−4 mol l^−1, pH 4.5; for rate of demineralisation of HAp (RDHAp): 0.1 mol l^−1 acetic acid pH 4.5, 3 weeks. The text has this:
HAp pellets are used in many studies instead of enamel blocks to prevent effect of enamel organic impurities and its natural surface on rate of demineralisation (Anderson et al., 2004). Statherin could not be isolated in a sufficiently pure form from saliva. Therefore N-terminal 21 residue fragment of statherin (StN21) was chemically synthesised using standard FastMoc synthesis (Fields et al., 1990). Also SXE motif, responsible for calcium binding in caseins, is present in this 21 amino-acid fragment of statherin. To exclude the possibility that StN21 act solely as a semi-permeable membrane, lysozyme was used as a negative control.
Hydroxyapatite (HAp) pellets of 20 wt % porosity (Plasma Biotal Ltd, UK) were sliced into 3×3 mm blocks with 2 mm thickness using Microslice 2 cutter (Malvern Instruments Ltd.). Entire surface of the block, except one side was coated with acid resistant nail varnish. Ten HAp blocks were put into a solution saturated with respect to HAp for 24 hours to equilibrate. After equilibration, four HAp blocks were exposed for 24 h to 0.5 ml of four different concentrations of StN21 peptide dissolved in modified buffer (100 mmol^−1 NaCl, 40 mmol^−1 KCl, 4.3 mmol^−1 Na2HPO4, and 1.4 mmol^−1 KH2PO4, pH 7.4). The concentrations of StN21 peptide were 0.75, 1.13, 1.88 and 3.76×10^−4 mol l^−1. As a negative control one HAp pellet was put into 0.5 ml of solution containing lysozyme at concentration of 0.11×10^−4 mol l^−1.
Scanning microradiography (SMR) is a technique for observing very subtle changes in mineral mass during re and demineralisation of enamel and HAp. It allows observation period of up to 1000 h without disruptions to the specimen. Also, conditions can be modified and the effect of applied modifications on the samples can be monitored. SMR (Anderson et al., 2004) is an X-ray photon counting technique where the intensity of 15 μm X ray beam is attenuated by passing through the specimen and the transmitted photons are counted by an X-ray detector.
HAp blocks were placed in the wells of SMR cells (FIG. 2). Each SMR cell contained one HAp block coated with protein and one as a control. As an additional control, in one SMR cell two uncoated HAp blocks were placed in one SMR cell. The reservoir of the SMR cell is approximately 1.2 ml and solution is circulating past the HAp blocks at 0.4 ml min^−1.
Demineralising solution was 0.1 mol l^−1 acetic acid, buffered to pH 4.5 with 1 mol l^−1 NaOH; 1 mmol l^−1 calcium and 0.6 mmol l^−1 phosphate ions.
SMR was used to monitor changes in mineral mass at 12 positions 10 μm apart, along 2 lines in each well. Scanning time was 30 s per position. Total period of observation was 3 weeks. The rate of mineral change at each position was calculated by linear least squares fitting.

The nature of assay [2]: SMR of demineralisation of HAp blocks after 3 min immersion(s) in STN21 solution. Conditions: STN21 1.88×10^−4 mol l^−1, pH 4.5. Here is the method:
STN21 was synthesised using Fmoc solid state synthesis. Hydroxyapatite (HAp) pellets were cut into 5×5×2 mm blocks and covered with acid-resistant varnish leaving one surface exposed and immersed in STN21 solution (1.88×10^−4 mol l^−1) for 3 min. The pellets were then located in scanning microradiography (SMR) cells. Demineralising solution (0.1 mol l^−1 acetic acid, pH 4.5) was circulated (0.4 ml min^−1) for 3 weeks.
Five samples were exposed to further twice daily 3 min. immersions in STN21 solution. Changes in mineral mass were measured using SMR for 28 days.

The conditions of assay [3]: lysozyme bound to HAp surface; cited from earlier work.

Where no end group is shown, it is not given here. [ ]: non-standard residue; d: D form. pS = N[C@@H](COP(=O)(O)O)C(=O)O

“DpSpSEEKFLRRIGRFGYGYGPY (D[pS][pS]EEKFLRRIGRFGYGYGPY; UniProt P02808 20-40, looked up, fragment) [StN21, N-terminal fragment of statherin which consists of 21 amino acids; pS = phosphorylated serine]”: in assay [1] (9.4×10^−6 molar, equivalent to 25 mg/litre), the “effect on RDHAp at lowest concentration” value is recorded as “effective”. Besides, the “RDHAp of coated HAp compared to uncoated control” value in assay [1] is “significantly lower”. In addition, the “rate of demineralisation of HAp (RDHAp)” value in assay [1] (StN21 coating concentration 0.75×10^−4 mol l^−1, 24 h exposure) is on record as 2.2 ×10^−5 g cm^−2 h^−1; in assay [1] (StN21 coating concentration 1.13×10^−4 mol l^−1, 24 h exposure) it was 1.9 ×10^−5 g cm^−2 h^−1; in assay [1] (StN21 coating concentration 1.88×10^−4 mol l^−1, 24 h exposure), 1.7 ×10^−5 g cm^−2 h^−1; in assay [1] (StN21 coating concentration 3.76×10^−4 mol l^−1, 24 h exposure), 1.8 ×10^−5 g cm^−2 h^−1. In addition, the “decrease in rate of mineral loss compared to a non-coated control” value in assay [2] (one 3 min period only) is given as 17%. In addition, the “decrease in demineralisation rate” value in assay [2] (repeated twice daily 3 min immersions) stood at 45%.

With lysozyme [reference compound], the “influence on rate of demineralisation of HAp” value in assay [3] is recorded as “does not influence rate of demineralisation of HAp”. Further, the “RDHAp of coated HAp compared to uncoated control” value in assay [1] is recorded as “very similar results to uncoated (control) blocks”.

Source of the values: patent US20090074680A1, “STATHERIN PEPTIDE AND USE IN MEDICINE” (QUEEN MARY & WESTFIELD COLLEGE, priority 2005, published 2009).
